The values that follow come from patent US12247019B2 (Centaurus Therapeutics, priority 2018, dated 2025).

Assay [1] concerns the target T1, Des1 (Homo sapiens, UniProt O15121).
T1 sequence (O15121 1-323): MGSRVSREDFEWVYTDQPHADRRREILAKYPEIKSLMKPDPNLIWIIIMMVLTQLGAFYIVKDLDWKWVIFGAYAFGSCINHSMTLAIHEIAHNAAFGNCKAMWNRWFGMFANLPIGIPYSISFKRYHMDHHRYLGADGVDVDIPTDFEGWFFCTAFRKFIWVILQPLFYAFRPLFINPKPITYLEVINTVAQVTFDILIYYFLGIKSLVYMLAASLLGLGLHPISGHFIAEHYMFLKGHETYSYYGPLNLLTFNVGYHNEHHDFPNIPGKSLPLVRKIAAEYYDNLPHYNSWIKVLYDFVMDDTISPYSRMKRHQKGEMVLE
As to the kind of experiment: Jurkat T cell measurement of conversion of dihydroceramide to ceramide (Des1 activity, LC-MS/MS of NBD-C6-ceramide). In kind it is cell-based. Details: endogenous in cells; host or cells: Jurkat clone E6-1. Particulars: Jurkat clone E6-1 cells; for inhibition at 0.5 µM: 0.5 uM compound, read-out: Des1 % Inhib (0.5 uM). The protocol:
(§1) Jurkat T Cell Measurement of Conversion of Dihydroceramide to Ceramide
(§2) Jurkat clone E6-1 cells were grown and then seeded at 10^6 cells/mL in a 96-well plate (400 μL in each well. The cells were administered 100 μL of cell culture media containing 50-μM NBD-C6-dihydroceramide (Des1 substrate), affording a final concentration of substrate of 10 μM. The cells were incubated with substrate at 4° C. for 30 minutes. Following the incubation at 4° C., the cell suspension was centrifuged at 1200 rpm for 3 minutes, and the cell pellet is resuspended in 400 μL of fresh media containing various concentrations of either fenretinide (known Des1 inhibitor control compound) or test article. The final concentrations of control compound and test compounds were tested in a range from 0-10 μM. The cells and compounds were incubated at 37° C. for 3 hours. Following the 3-hour incubation, the plate was centrifuged at 2500 g for 3 minutes at 4° C., followed by collection and transfer of 200 μL of the supernatant to a new 96-well plate with 300 μL of methanol an containing appropriate internal standards for liquid chromatography/tandem mass spectroscopy (LC/MS/MS) analysis (internal standard: 500 nM labetalol and 100 nM alprazolam). The samples were vortexed for 2 minutes followed by centrifugation at 3,220 g for 20 minutes. Following centrifugation, 200 μL of the supernatant was transferred to a new 96-well plate for LC-MS/MS analysis to determine the amount of NBD-C6-ceramide (Des1 product) produced. The assay was typically performed in duplicate. A reduction of at least 30% compared to vehicle control (0 μM test article) is indicative of an active compound, and a reduction of 75% compared to vehicle control is preferred.

Assay [2] concerns insulin-stimulated Akt phosphorylation in C2C12 myotubes. As to the kind of experiment: C2C12 myotube assay of insulin-stimulated phosphorylation of Akt. It counts as cell-based. To be noted: 0.75 mM BSA-conjugated palmitate 16 hours, insulin 100 nM 10 minutes; read-out: half-maximal effective concentration (EC50) for increasing insulin-stimulated Akt phosphorylation in the presence of palmitate. The method, then:
C2C12 Myotube Assay of Insulin-Stimulated Phosphorylation of Akt:
C2C12 myotubes are treated with 0.75 mM BSA-conjugated palmitate for 16 hours in the presence or absence of 7 non-zero concentrations of fenretinide (Des1 inhibitor control compound) or various test articles, followed by a 10-minute stimulation with insulin (100 nM). Cells are subsequently harvested and boiled in reducing SDS sample buffer and subjected to SDS-PAGE followed by detection of phosphorylated Akt, total Akt, and a suitable loading control (e.g. actin or GAPDH) by western blot using fluorescently-conjugated secondary antibodies. Band intensities are quantitated by an Odyssey imaging system (Li—COR), but could also be performed using HRP-conjugated secondary antibodies/enhanced chemiluminescence or by colorimetric readout.
Moreover, while currently contemplated for SDS-PAGE/immunoblot format, this assay could be adapted to ELISA or in-cell western (immunocytochemistry) formats for higher throughput testing of compounds. An increase of 30% compared to vehicle control (0 μM test article) is indicative of an active compound, and an increase of 50% compared to control is preferred. […] Des1 inhibitors disclosed herein are expected to be effective in this assay.

Assay [3] deals with CFTR-KO mice. Particulars: Guilbault et al. 2008, 2009, cited from earlier work.
Assay [4] has as its target T1, Des1. As to the kind of experiment: Jurkat T cell measurement of conversion of dihydroceramide to ceramide (Des1 activity, LC-MS/MS of NBD-C6-ceramide). In kind it is cell-based. Also on record: Jurkat clone E6-1 cells were grown and then seeded at 10^6 cells/mL in a 96-well plate; endogenous in cells; host or cells: Jurkat clone E6-1. Particulars: 0.5 uM compound; Jurkat clone E6-1 cells, 10 μM NBD-C6-dihydroceramide, 3 hours at 37° C.; read-out: Des1 % Inhib (0.5 uM). The method, then: as §1
as §2, with “Following centrifugation, 200 μL of the supernatant was transferred to a new 96-well plate for LC-MS/MS analysis to determine the amount of NBD-C6-ceramide (Des1 product) produced. The assay was typically performed in duplicate. A reduction of at least 30% compared to vehicle control (0 μM test article) is indicative of an active compound, and a reduction of 75% compared to vehicle control is preferred.” left out

Setting [5] is: 10 μM NBD-C6-dihydroceramide, 3 hours at 37° C., read-out: Des1 IC50.
[6] abbreviates: 10 μM NBD-C6-dihydroceramide, 3 hours at 37° C.

Like-named read-outs stand apart in the source and are kept apart here.

As for `O=C(Nc1ccc(O)cn1)NC1CCN(c2ccccc2)CC1` [Example 32, 3-(5-hydroxypyridin-2-yl)-1-(1-phenylpiperidin-4-yl)urea], the IC50 in assay [1] (setting [5]) worked out at 180 nM. For `Cn1ncc2ccc(N3CCN(C(=O)Nc4ccc(O)cn4)CC3)cc21` [Example 82, N-(5-hydroxypyridin-2-yl)-4-(1-methyl-1H-indazol-6-yl)piperazine-1-carboxamide], the inhibition at 0.5 µM in assay [1] (setting [6]) turned out to be 78.4%. Turning to `CCCCCCNC(=O)Nc1ccc(O)cn1` [Example 40, 1-Hexyl-3-(5-hydroxypyridin-2-yl)urea], in assay [1] (setting [6]), the inhibition at 0.5 µM is 89.1%. The IC50 in assay [1] (setting [5]) was determined as 13 nM.

Regarding `O=C(Nc1ccc(O)cn1)N1CCN(c2cc(F)ccn2)CC1` [Example 78, 4-(4-fluoropyridin-2-yl)-N-(5-hydroxypyridin-2-yl)piperazine-1-carboxamide], the inhibition at 0.5 µM in assay [1] (setting [6]) amounted to 93.4%. Also, in assay [1] (setting [5]), the IC50 lay within 19 to 64 nM. For `O=C(Nc1ccc(O)cn1)OC1CCN(c2ccc(F)cc2)CC1` [Example 53, 1-(4-fluorophenyl)piperidin-4-yl N-(5-hydroxypyridin-2-yl)carbamate] the same measures were 94.8% and 4 nM. Consider `O=C(Nc1ccc(O)cn1)N1CCN(c2ncccn2)CC1` [Example 16, N-(5-hydroxypyridin-2-yl)-4-(pyrimidin-2-yl)piperazine-1-carboxamide], for which, in assay [1] (setting [6]), the inhibition at 0.5 µM came to 31.4%. For `CC1=C(/C=C/C(C)=C/C=C/C(C)=C/C(=O)Nc2ccc(O)cc2)C(C)(C)CCC1` [fenretinide], the EC50 in assay [2] is 600 nM. Moreover, the IC50 in assay [1] (read-out: half-maximal inhibitory concentration (IC50)) lay within 100 to 250 nM. In addition, in assay [3] (CFTR-KO mice), the “susceptibility to infection with Pseudomonas aeruginosa” value is on record as “reduce susceptibility to infection”. For the same molecule, in assay [3] (lungs of CFTR-KO mice), the “ratio of lung arachidonic acid (AA) to docosahexaenoic acid (DHA)” value is “normalize this ratio”. In the case of `O=S(=O)(Nc1ccc(O)cn1)N1CCN(c2ccc(F)cc2)CC1` [Example 72], in assay [4], the inhibition at 0.5 µM is 50.2%. For the molecule `O=C(Nc1ccc(O)cn1)N1CCN(c2ccc(F)c(F)c2)CC1` [Example 25, 4-(3,4-difluorophenyl)-N-(5-hydroxypyridin-2-yl)piperazine-1-carboxamide], in assay [1] (setting [5]), the IC50 was found to be 9 nM. With `O=C(Nc1ccc(O)cn1)N1CCN(c2ccc(F)cn2)CC1` [Example 24, 4-(5-fluoropyridin-2-yl)-N-(5-hydroxypyridin-2-yl)piperazine-1-carboxamide], the IC50 in assay [1] (setting [5]) fell in the range of 64 to 94 nM. In the case of `O=C(Nc1ccc(O)cn1)NC1CCCN(c2ccc(Cl)cc2)C1` (stereo not shown) [Example 48, 1-[1-(4-chlorophenyl)piperidin-3-yl]-3-(5-hydroxypyridin-2-yl)urea], the inhibition at 0.5 µM in assay [1] (setting [6]) amounted to 39.8%.

For the molecule `O=C(Nc1ccc(O)cn1)N[C@H]1CC[C@H](c2ccccc2)CC1` [Example 19, 3-(5-hydroxypyridin-2-yl)-1-[(1r,4r)-4-phenylcyclohexyl]urea], the inhibition at 0.5 µM in assay [1] (setting [6]) was 76.7%. As to `O=C(Nc1ccc(O)cn1)N1CCN(c2ccccc2F)CC1` [Example 12, 4-(2-fluorophenyl)-N-(5-hydroxypyridin-2-yl)piperazine-1-carboxamide], the inhibition at 0.5 µM in assay [1] (setting [6]) was found to be 90.5%. In assay [1] (setting [5]), the IC50 turned out to be 54 nM. Take `O=C(NCc1ccc(Cl)cc1)Nc1ccc(O)cn1` [Example 76, 1-[(4-chlorophenyl)methyl]-3-(5-hydroxypyridin-2-yl)urea]: in assay [1] (setting [6]), the inhibition at 0.5 µM came to 75.1%. For the molecule `O=S(=O)(Nc1ccc(O)cn1)N1CCN(c2ccc(C(F)(F)F)cc2)CC1` [Example 75, N-(5-hydroxypyridin-2-yl)-4-(4-(trifluoromethyl)phenyl)-piperazine-1-sulfonamide], the inhibition at 0.5 µM in assay [1] (setting [6]) is 91.2%. For the same molecule, the IC50 in assay [1] (setting [5]) lay in the range of 62 to 86 nM.

On to `O=C(Nc1ccc(O)cn1)NC1CCCCC1` [Example 21, 1-cyclohexyl-3-(5-hydroxypyridin-2-yl)urea], for which, in assay [1] (setting [6]), the inhibition at 0.5 µM was 69.3%.

On to `O=C(Nc1ccc(O)cn1)N1CCCN(c2ccc(F)c(F)c2)CC1` [Example 87, 4-(3,4-difluorophenyl)-N-(5-hydroxypyridin-2-yl)-1,4-diazepane-1-carboxamide], for which the inhibition at 0.5 µM in assay [1] (setting [6]) came out at 92.7%. In assay [1] (setting [5]), the IC50 stood at 21 nM.

Consider `Cn1ncc2c(N3CCN(C(=O)Nc4ccc(O)cn4)CC3)cccc21` [Example 81, N-(5-hydroxypyridin-2-yl)-4-(1-methyl-1H-indazol-4-yl)piperazine-1-carboxamide], for which the inhibition at 0.5 µM in assay [1] (setting [6]) is 77.9%. Consider `O=C(Oc1ccc(O)cn1)N1CCN(c2ccc(C(F)(F)F)cn2)CC1` [Example 88, 5-hydroxypyridin-2-yl 4-[5-(trifluoromethyl)pyridin-2-yl]piperazine-1-carboxylate], for which the inhibition at 0.5 µM in assay [1] (setting [6]) is 92.7%. Also, the IC50 in assay [1] (setting [5]) came to 25 nM.

Consider `O=C(Nc1ccc(O)cn1)N1CCN(c2cccc(F)n2)CC1` [Example 35, 4-(6-fluoropyridin-2-yl)-N-(5-hydroxypyridin-2-yl)piperazine-1-carboxamide], for which the inhibition at 0.5 µM in assay [1] (setting [6]) turned out to be 91.3%. The IC50 in assay [1] (setting [5]) is 3 nM. Regarding `O=S(=O)(Nc1ccc(O)cn1)C1CCN(c2ccc(F)cc2)CC1` [Example 66, 1-(4-fluorophenyl)-N-(5-hydroxypyridin-2-yl)piperidine-4-sulfonamide], the inhibition at 0.5 µM in assay [1] (setting [6]) was determined as 72.1%. For the molecule `O=C(Nc1ccc(O)cn1)OC1CCN(c2ccc(F)cc2F)CC1` [Example 54, 1-(2,4-difluorophenyl)piperidin-4-yl N-(5-hydroxypyridin-2-yl)carbamate], in assay [1] (setting [5]), the IC50 was 5 nM.

Turning to `O=C(Nc1ccc(O)cn1)N1CCC(c2cccc(Cl)c2)CC1` [Example 7], the inhibition at 0.5 µM in assay [1] (setting [6]) worked out at 94%. Further, the IC50 in assay [1] (setting [5]) came out at 26 nM. As to `O=C(Nc1ccc(O)cn1)N1CCN(c2cccnc2)CC1` [Example 39, 1-[((5-Hydroxypyridin-2-yl)amino)carbonyl]-4-(pyridin-3-yl)piperazine], in assay [1] (setting [6]), the inhibition at 0.5 µM worked out at 9.11%. In the case of `CC(C)c1ccc(S(=O)(=O)Nc2ccc(O)cn2)cc1` [Example 61, N-(5-Hydroxypyridin-2-yl)-4-(propan-2-yl)benzene-1-sulfonamide], the inhibition at 0.5 µM in assay [1] (setting [6]) worked out at 37.5%. `CC(C)CCCCCS(=O)(=O)Nc1ccc(O)cn1` [Example 70, N-(5-Hydroxypyridin-2-yl)-6-methylheptane-1-sulfonamide]: the inhibition at 0.5 µM in assay [1] (setting [6]) was found to be 83.8%. The IC50 in assay [1] (setting [5]) is 110 nM. `O=C(Nc1ccc(O)cn1)N1CCCCC1` [Example 10, N-(5-Hydroxypyridin-2-yl)piperidine-1-carboxamide]: in assay [1] (setting [6]), the inhibition at 0.5 µM was 15%. Turning to `COc1ccc(N2CCN(C(=O)Nc3ccc(O)cn3)CC2)nc1` [Example 45, N-(5-hydroxypyridin-2-yl)-4-(5-methoxypyridin-2-yl)piperazine-1-carboxamide], in assay [1] (setting [5]), the IC50 came out at 470 nM. Take `O=C(Nc1ccc(O)cn1)N1CCN(c2ccc(C(F)(F)F)cc2)CC1` [Example 14, N-(5-Hydroxypyridin-2-yl)-4-[4-(trifluoromethyl)phenyl]piperazine-1-carboxamide]: the inhibition at 0.5 µM in assay [1] (setting [6]) stood at 95.9%. Besides, in assay [1] (setting [5]), the IC50 was determined as 3 nM.
